Results reported in PubChem BioAssay (NCI).
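Cultured in 96-well plates, cells were exposed to test compound for 48 hours across five concentrations. GI50 is the concentration that inhibits growth by half. At the TGI there is no net growth.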

Assays:
Assay in all cases: DTP human tumour cell line panel, 48 h
[1] = test system: OVCAR-3 ovarian
[2] = test system: SR leukemia
[3] = test system: NCI-H23 lung
[4] = test system: MALME-3M melanoma
[5] = test system: OVCAR-4 ovarian
[6] = test system: NCI-H460 lung
[7] = test system: PC-3 prostate
[8] = test system: NCI-H226 lung

| SMILES | TGI [1] [µM] | TGI [2] [µM] | TGI [3] [µM] | TGI [4] [µM] | TGI [5] [µM] | TGI [6] [µM] | TGI [7] [µM] | TGI [8] [µM] | GI50 [1] [µM] | GI50 [2] [µM] | GI50 [7] [µM] | GI50 [8] [µM] | GI50 [3] [µM] | GI50 [4] [µM] | GI50 [5] [µM] | GI50 [6] [µM] |
| --- | --- | --- | --- | --- | --- | --- | --- | --- | --- | --- | --- | --- | --- | --- | --- | --- |
| CC(C)(C)NCc1cc(C(C)(C)C)cc(-c2ccc(Cl)cc2)c1O | 29.5 | 40.4 | 29.4 | 27.8 | 41.3 | 34.8 |  |  |  |  |  |  |  |  |  |  |
| Nc1ccc(S(=O)(=O)C23CC4CC(CC(C4)C2)C3)cc1 | > 100 | > 100 | > 100 | > 100 |  | > 100 | > 100 | > 100 |  |  |  |  |  |  |  |  |
| C#CC1(O)C(COP(=O)(O)OC2CC(n3cc(F)c(=O)[nH]c3=O)OC2CO)OC(n2ccc(N)nc2=O)C1O (stereo unspecified) |  | 0.142 | > 38 | 5.07 | 8.49 | > 32.1 | 29.7 | > 36.1 | 0.031 | < 0.01 | < 0.032 | 0.0614 | < 0.026 | 0.117 | 0.143 | < 0.01 |
| CC(C)c1ccc(C(=O)Nc2sc3c(c2C#N)CCC(=O)C3)cc1 | 1.61 | > 100 | 9.57 | 3.82 | 1.36 | > 35.9 | > 23.7 | 16.3 | 0.396 | 0.424 | 0.263 | 3.88 | 0.32 | 1.17 | 0.294 | 1.14 |
| CCOC(=O)C(CO)c1nc2c([nH]c1=O)c(=O)n(C)c(=O)n2C (stereo unspecified) | > 100 | > 100 | > 100 | > 100 |  | > 100 | > 100 | > 100 |  |  |  |  |  |  |  |  |
| CCOC(=O)c1[nH]c(-c2ccc(Cl)cc2)cc1-c1cccnc1 | > 100 |  | > 100 |  | > 100 | > 100 | > 100 | > 100 | 0.349 |  | 0.325 | 17.3 | 2.33 |  | 10.2 | 0.449 |
| NC(=O)c1cc(Br)cc(C2CCCCC2)c1O | 25.9 | 34.6 | 30.8 | 35.9 | 25.6 | 30.5 | 26.4 | 31 | 13.2 | 14.2 | 12.8 | 13.6 | 15.3 | 19.6 | 12.9 | 15.6 |
| CN(C)CCCN1c2nc3ccccc3cc2Sc2cc3ccccc3nc21 | 2.92 |  | 2.86 | 2.89 |  | 3.13 | 2.74 | 4.03 | 1.53 |  | 1.36 | 1.46 | 1.4 | 1.33 |  | 1.6 |
| ClC(Cl)c1nc(-c2cccnc2)n2nc(-c3ccccc3)cc2n1 | 4.16 | > 100 | 2.9 | 3.25 | 5.78 | 4.21 | 4.68 |  | 1.61 | 0.348 | 1.71 |  | 0.62 | 1.59 | 2.03 | 1.09 |
| CN(C)N1C(=O)c2ccccc2NC1c1ccccc1 (stereo unspecified) | > 100 |  | > 100 | > 100 | > 100 | > 100 | > 100 | > 100 |  |  |  |  |  |  |  |  |
| NNc1nc2ccccc2c(=O)n1NC(=O)C(=O)Nc1cccc(C(F)(F)F)c1 | > 100 |  | > 100 | > 100 | > 100 | > 100 | > 100 | > 100 |  |  |  |  |  |  |  |  |
| N=C(N=C(N)N)N1CCN(c2ccncc2)CC1 | > 1000 | > 1000 | > 1000 | > 1000 | > 1000 | > 1000 | > 1000 | > 1000 | > 1000 | > 1000 | > 1000 | > 1000 | > 1000 | > 1000 | > 1000 | > 1000 |
| COc1ccc2c(Nc3ccc(NS(C)(=O)=O)cc3)c3ccccc3nc2c1 | 3.09 | 6.46 | 2.49 | 2.38 | 4.13 | 1.11 | 10.1 | 1.59 | 0.99 | 0.112 | 0.735 | 0.229 | 0.475 | 0.652 | 1.23 | 0.0618 |
| C1CSCCCSCCSCCCSC1 |  |  | > 100 |  | > 100 | > 100 | > 100 | > 100 |  |  |  |  |  |  |  |  |
| COc1cc(/C=C\[N+](=O)[O-])ccc1OCc1ccccc1 | 3.71 | 5.27 | 5.26 | 9.38 | 13.1 | 15.9 | 25.4 | 5.47 | 1.62 | 1.46 | 3.5 | 2.26 | 2.07 | 2.54 | 3.07 | 3.98 |
| CCOC(=O)C(=Cc1ccccc1[N+](=O)[O-])C(=O)OCC | 6.48 | 30.1 | 13.9 | 13.2 | 18.1 | 10.8 | 34.7 | 12.8 | 2.65 | 2.07 | 6.69 | 3.26 | 3.35 | 3.85 | 4.68 | 3.25 |
| C=C1C(=O)OC2CC1C(O)C/C(C)=C/CC/C(C)=C/C(O)CC2C (stereo unspecified) | 9.2 | 2.61 | 7.8 | 7.61 | 11.5 | 10.8 | 13.1 | 24.8 |  |  |  |  |  |  |  |  |
| COc1cc2c3c(n(CCCNCCN)c(=O)c2cc1OC)-c1cc2c(cc1C3=O)OCO2 | 1.21 |  | 1.14 | 7.74 | 2.47 | > 49.9 | 14.9 | 2.55 | 0.363 |  | 2.13 | 1.1 | 0.242 | 0.654 | 0.475 | 1.24 |
| CC[C@@]1(O)C(=O)NCc2c1cc1n(c2=O)Cc2cc3c(N)cccc3nc2-1 | 40 | 5.35 | 15.1 |  | > 41.5 | 27.8 | > 55.4 | > 38.9 | 11 | 0.672 | 9.99 | 2.03 | 0.942 | 1.1 | 11.4 | 0.305 |

| SMILES | TGI [1] [µM] | TGI [2] [µM] | TGI [3] [µM] | TGI [4] [µM] | TGI [5] [µM] | TGI [6] [µM] | TGI [7] [µM] | TGI [8] [µM] | GI50 [1] [µM] | GI50 [2] [µM] | GI50 [7] [µM] | GI50 [8] [µM] | GI50 [3] [µM] | GI50 [4] [µM] | GI50 [5] [µM] | GI50 [6] [µM] |
| --- | --- | --- | --- | --- | --- | --- | --- | --- | --- | --- | --- | --- | --- | --- | --- | --- |
| O=S(=O)(NCC1CCC(CNc2ccc(Cl)cc2)CC1)c1ccc(-c2ccccc2)cc1 (stereo unspecified) | > 50 | > 50 | > 50 |  | > 50 | > 50 | > 50 | > 50 | 10.7 | > 50 | 40.9 | 21.2 | 20.6 |  | > 50 | 42.5 |
| O=c1[nH]c(=O)n(C2OC(CO)C(O)C2O)c2c1CCCC2 (stereo unspecified) | > 100 | > 100 | > 100 | > 100 | > 100 | > 100 | > 100 | > 100 |  |  |  |  |  |  |  |  |
| N#Cc1cnc2cc(OC[C@@H](O)CO)c(NC(=O)CC3CSSC3)cc2c1Nc1ccc(OCc2cccc(F)c2)c(Cl)c1 | 0.913 | 0.275 | 1.51 | 0.938 | 0.381 | 0.261 | 0.198 |  | 0.284 | 0.0408 | 0.0888 |  | 0.614 | 0.215 | 0.128 | 0.104 |
| COc1ccc(-c2cc(/C=C3\C(=O)Nc4ccc(Cl)cc43)[nH]n2)cc1 | 8.42 | 20.1 | 16.3 | 20 | 17.3 | 13 | 15.9 | 28.1 | 3.05 | 4.24 | 4.03 | 12.1 | 3.73 | 6.85 | 4.31 | 3.81 |
| C=C1C(=O)O[C@H]2[C@H]1CC/C(COC(=O)NCc1ccc(Cn3c(=O)sn(CCCCl)c3=O)cc1)=C\CC[C@@]1(C)O[C@@H]21 | 2.09 |  | 5.36 | 3.05 | 3.83 | 30.5 | 5.05 | 42.6 | 0.776 |  | 2.13 | 16.6 | 2.33 | 1.34 | 1.67 | 11.3 |
| O=C(c1ccc2ncc(-c3nc(NC4CC4)ncc3F)n2c1)N1CCOCC1 | 7.22 | 4.15 | 9.68 | 8.35 | 10.9 | > 100 | 8.86 | 6.39 | 2.21 | 0.513 | 2.14 | 2.05 | 2.58 | 3.33 | 2.8 | 2.91 |
| NC1CCN(c2nc(Nc3cccc(C(F)(F)F)c3)c3c(=O)[nH]ccc3n2)CC1 |  | 2.82 | 3.11 | 3.83 | 3.84 | 2.8 | 3.59 | 3.7 |  | 0.774 | 1.78 | 1.86 | 1.58 | 1.88 | 1.53 | 1.26 |
| Cc1sc(C)c(Cc2c(C)sc(C)c2CCl)c1CCl | > 100 | > 100 | > 100 | > 100 | > 100 | > 100 |  | > 100 | > 100 | > 100 |  | > 100 | > 100 | 81.4 | > 100 | > 100 |
| OCC1OC(n2ccc3c(NO)ncnc32)C(O)C1O (stereo unspecified) | 0.884 |  | 1.17 | 0.451 | 1.3 | 4.45 | 1.14 |  | 0.249 |  | 0.239 | 0.251 | 0.214 | 0.117 | 0.124 | 0.044 |
| COCCOC(=O)NC(=O)Nc1ccc(/C(=N/O)c2ccc(Cl)cc2)cc1 | 4.4 | 10.8 | 51.4 | 33.1 | 54.2 | 13.7 | 64.2 | 39.4 | 0.0991 | 0.0546 | 0.141 | 1.14 | 0.221 | 11.9 | 0.385 | 0.129 |
| Nc1ccc2c(c1)NCCN2 | > 100 | > 100 | > 100 | > 100 | > 100 | > 100 | > 100 | 52.2 |  |  |  |  |  |  |  |  |
| Clc1ccc2[nH]cc(-c3nc(-c4c[nH]c5ncccc45)cs3)c2c1 | 34.1 |  | 20.5 | 19 | 36.5 | 9.15 | 28 | 22.2 | 6.69 |  | 3.5 | 3.69 | 3.34 | 5.17 | 2.85 | 2.56 |
| Cn1ncc2c(N)nc(N3CCCCC3)nc21 | 71.7 |  | > 100 | 67.9 | > 100 | > 100 | > 100 | 48.3 | 19.9 |  | 33.5 | 22.1 | 28.4 | 20.8 | 27.2 | 42.5 |
| Cc1nc2ccc(Nc3nc(NCCN4CCOCC4)nc(Nc4ccc(F)cc4)n3)cc2n1Cc1ccccc1 | 20.3 | 5.23 | 24.8 | 3.6 |  | 13.2 | 16.2 | 27.9 | 4.24 | 1.46 | 3.26 | 4.02 | 3.67 | 2.04 |  | 3.59 |
| N#Cc1c(-c2ccccc2)cc(-c2ccc(Nc3nc(Nc4ccc(Cl)cc4)nc(Nc4ccc(Cl)cc4)n3)cc2)nc1N | 3.68 |  | 61.4 | 3.62 | > 100 | 15.8 | 6.76 | 3.75 | 1.7 |  | 1.89 | 1.73 | 6.14 | 1.69 | 4.06 | 3.47 |
| Cc1nc2sc(C(=O)Nc3cccc4ccccc34)c(N)c2cc1C(=O)c1ccccc1 |  | > 50 | > 50 | > 50 | > 50 | 6.32 | > 50 | > 50 |  | 0.632 | 1.78 | 7.71 | 3.55 | 3.86 | 3.21 | 0.727 |
| C[C@]1(CO)[C@H]2CC[C@@]34C=C[C@@](CO)(CC[C@H]3[C@]2(C)CC[C@H]1O)C4 | > 100 | > 100 | > 100 | > 100 | > 100 |  | > 100 | > 100 |  |  |  |  |  |  |  |  |
| CCCCNN | > 100 | > 100 | > 100 | > 100 | > 100 |  | > 100 | > 100 |  |  |  |  |  |  |  |  |
